Drawing on PubChem BioAssay (NCI), this text covers TGI for four molecules.

The structures appear in SMILES notation.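 Test compounds were applied to cells in 96-well plates for 48 hours at 5 doses. At the TGI there is no net growth.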 A value given as a limit tells only on which side of the number the result lay.

One assay relates to 786-0 renal. Description: growth of human tumour cells (NCI), 48 h.
`COc1cc2c(cc1OC)C1=Cc3cc(OC)c(OC)cc3C(C)N1C=C2` (stereo not drawn) came in with a TGI of more than 100 µM.

The molecule `Nc1nc2cc3nc(N)c(N)nc3cc2nc1N` returned a TGI of more than 100 µM.

The molecule `CCOC(=O)CNC(=O)C(CSCc1ccc(Br)cc1)NC(=O)CCC(N)C(=O)OCC` (stereo not drawn) showed a TGI of more than 50 µM.

`COC(=O)C1(C(=O)OC)CC2=C(S(=O)(=O)c3ccccc3)C[C@H](S(=O)(=O)c3ccccc3)[C@H]2C1` returned a TGI of more than 100 µM.

Another assay concerns SF-268 CNS. Kind of assay: growth of human tumour cells (NCI), 48 h.
`COc1cc2c(cc1OC)C1=Cc3cc(OC)c(OC)cc3C(C)N1C=C2` (stereo not drawn): the TGI was more than 100 µM.

`Nc1nc2cc3nc(N)c(N)nc3cc2nc1N` gave a TGI of more than 100 µM.

`CCOC(=O)CNC(=O)C(CSCc1ccc(Br)cc1)NC(=O)CCC(N)C(=O)OCC` (stereo not drawn): the TGI is more than 50 µM.

In turn, `COC(=O)C1(C(=O)OC)CC2=C(S(=O)(=O)c3ccccc3)C[C@H](S(=O)(=O)c3ccccc3)[C@H]2C1` returned a TGI of more than 100 µM.

The subject of the next assay is U251 CNS. Kind of assay: growth of human tumour cells (NCI), 48 h.
Take `COc1cc2c(cc1OC)C1=Cc3cc(OC)c(OC)cc3C(C)N1C=C2` (stereo not drawn): the TGI was more than 100 µM.

Molecule `Nc1nc2cc3nc(N)c(N)nc3cc2nc1N` displayed a TGI of more than 100 µM.

On to `CCOC(=O)CNC(=O)C(CSCc1ccc(Br)cc1)NC(=O)CCC(N)C(=O)OCC` (stereo not drawn), for which the TGI was more than 50 µM.

`COC(=O)C1(C(=O)OC)CC2=C(S(=O)(=O)c3ccccc3)C[C@H](S(=O)(=O)c3ccccc3)[C@H]2C1`: the TGI is more than 100 µM.

In another assay the test system is K-562 leukemia. Description: growth of human tumour cells (NCI), 48 h.
`COc1cc2c(cc1OC)C1=Cc3cc(OC)c(OC)cc3C(C)N1C=C2` (stereo not drawn): the TGI is more than 100 µM.

Molecule `CCOC(=O)CNC(=O)C(CSCc1ccc(Br)cc1)NC(=O)CCC(N)C(=O)OCC` (stereo not drawn) displayed a TGI of more than 50 µM.

The molecule `COC(=O)C1(C(=O)OC)CC2=C(S(=O)(=O)c3ccccc3)C[C@H](S(=O)(=O)c3ccccc3)[C@H]2C1` had a TGI of 58.5 µM.

The next assay has as its system KM12 colon. Kind of assay: growth of human tumour cells (NCI), 48 h.
Molecule `COc1cc2c(cc1OC)C1=Cc3cc(OC)c(OC)cc3C(C)N1C=C2` (stereo not drawn) yielded a TGI of more than 100 µM.

Regarding `Nc1nc2cc3nc(N)c(N)nc3cc2nc1N`, the TGI was more than 100 µM.

For the molecule `CCOC(=O)CNC(=O)C(CSCc1ccc(Br)cc1)NC(=O)CCC(N)C(=O)OCC` (stereo not drawn), the TGI is more than 50 µM.

In turn, `COC(=O)C1(C(=O)OC)CC2=C(S(=O)(=O)c3ccccc3)C[C@H](S(=O)(=O)c3ccccc3)[C@H]2C1` registered a TGI of more than 100 µM.

The test system of another assay is CAKI-1 renal. Kind of assay: growth of human tumour cells (NCI), 48 h.
Molecule `Nc1nc2cc3nc(N)c(N)nc3cc2nc1N` gave a TGI of more than 100 µM.

Molecule `CCOC(=O)CNC(=O)C(CSCc1ccc(Br)cc1)NC(=O)CCC(N)C(=O)OCC` (stereo not drawn) yielded a TGI of more than 50 µM.

Take `COC(=O)C1(C(=O)OC)CC2=C(S(=O)(=O)c3ccccc3)C[C@H](S(=O)(=O)c3ccccc3)[C@H]2C1`: the TGI is more than 100 µM.

The subject of another assay is UACC-62 melanoma. Description: growth of human tumour cells (NCI), 48 h.
`COc1cc2c(cc1OC)C1=Cc3cc(OC)c(OC)cc3C(C)N1C=C2` (stereo not drawn) showed a TGI of more than 100 µM.

Consider `Nc1nc2cc3nc(N)c(N)nc3cc2nc1N`, for which the TGI is more than 100 µM.

In turn, `CCOC(=O)CNC(=O)C(CSCc1ccc(Br)cc1)NC(=O)CCC(N)C(=O)OCC` (stereo not drawn) showed a TGI of more than 50 µM.

`COC(=O)C1(C(=O)OC)CC2=C(S(=O)(=O)c3ccccc3)C[C@H](S(=O)(=O)c3ccccc3)[C@H]2C1` registered a TGI of 71.6 µM.

For the next assay, the system named is HOP-92 NSCLC. Description: growth of human tumour cells (NCI), 48 h.
On to `COc1cc2c(cc1OC)C1=Cc3cc(OC)c(OC)cc3C(C)N1C=C2` (stereo not drawn), for which the TGI was more than 100 µM.

In turn, `CCOC(=O)CNC(=O)C(CSCc1ccc(Br)cc1)NC(=O)CCC(N)C(=O)OCC` (stereo not drawn) gave a TGI of more than 50 µM.

Molecule `COC(=O)C1(C(=O)OC)CC2=C(S(=O)(=O)c3ccccc3)C[C@H](S(=O)(=O)c3ccccc3)[C@H]2C1` displayed a TGI of 55.9 µM.

For another assay, the system named is HCC-2998 colon. Kind of assay: growth of human tumour cells (NCI), 48 h.
In turn, `COc1cc2c(cc1OC)C1=Cc3cc(OC)c(OC)cc3C(C)N1C=C2` (stereo not drawn) displayed a TGI of more than 100 µM.

`Nc1nc2cc3nc(N)c(N)nc3cc2nc1N` gave a TGI of more than 100 µM.

On to `CCOC(=O)CNC(=O)C(CSCc1ccc(Br)cc1)NC(=O)CCC(N)C(=O)OCC` (stereo not drawn), for which the TGI is more than 50 µM.

Molecule `COC(=O)C1(C(=O)OC)CC2=C(S(=O)(=O)c3ccccc3)C[C@H](S(=O)(=O)c3ccccc3)[C@H]2C1` showed a TGI of 29.5 µM.

In the next assay the test system is NCI-H522 lung. Description: growth of human tumour cells (NCI), 48 h.
In turn, `Nc1nc2cc3nc(N)c(N)nc3cc2nc1N` displayed a TGI of more than 100 µM.

Consider `CCOC(=O)CNC(=O)C(CSCc1ccc(Br)cc1)NC(=O)CCC(N)C(=O)OCC` (stereo not drawn), for which the TGI was more than 50 µM.

`COC(=O)C1(C(=O)OC)CC2=C(S(=O)(=O)c3ccccc3)C[C@H](S(=O)(=O)c3ccccc3)[C@H]2C1`: the TGI was determined as 92.7 µM.

Another assay relates to A549 NSCLC. Kind of assay: growth of human tumour cells (NCI), 48 h.
For `COc1cc2c(cc1OC)C1=Cc3cc(OC)c(OC)cc3C(C)N1C=C2` (stereo not drawn), the TGI was more than 100 µM.

For the molecule `Nc1nc2cc3nc(N)c(N)nc3cc2nc1N`, the TGI was more than 100 µM.

In the case of `CCOC(=O)CNC(=O)C(CSCc1ccc(Br)cc1)NC(=O)CCC(N)C(=O)OCC` (stereo not drawn), the TGI was more than 50 µM.

As to `COC(=O)C1(C(=O)OC)CC2=C(S(=O)(=O)c3ccccc3)C[C@H](S(=O)(=O)c3ccccc3)[C@H]2C1`, the TGI was more than 100 µM.

Another assay relates to MALME-3M melanoma. Description: growth of human tumour cells (NCI), 48 h.
Regarding `COc1cc2c(cc1OC)C1=Cc3cc(OC)c(OC)cc3C(C)N1C=C2` (stereo not drawn), the TGI is more than 100 µM.

Consider `Nc1nc2cc3nc(N)c(N)nc3cc2nc1N`, for which the TGI was more than 100 µM.

The molecule `COC(=O)C1(C(=O)OC)CC2=C(S(=O)(=O)c3ccccc3)C[C@H](S(=O)(=O)c3ccccc3)[C@H]2C1` gave a TGI of more than 100 µM.

The test system of a further assay is M14 melanoma. Kind of assay: growth of human tumour cells (NCI), 48 h.
Molecule `COc1cc2c(cc1OC)C1=Cc3cc(OC)c(OC)cc3C(C)N1C=C2` (stereo not drawn) showed a TGI of more than 100 µM.

Take `Nc1nc2cc3nc(N)c(N)nc3cc2nc1N`: the TGI is more than 100 µM.

On to `CCOC(=O)CNC(=O)C(CSCc1ccc(Br)cc1)NC(=O)CCC(N)C(=O)OCC` (stereo not drawn), for which the TGI is more than 50 µM.

Regarding `COC(=O)C1(C(=O)OC)CC2=C(S(=O)(=O)c3ccccc3)C[C@H](S(=O)(=O)c3ccccc3)[C@H]2C1`, the TGI is more than 100 µM.

Another assay concerns SF-295 CNS. Description: growth of human tumour cells (NCI), 48 h.
Molecule `COc1cc2c(cc1OC)C1=Cc3cc(OC)c(OC)cc3C(C)N1C=C2` (stereo not drawn) came in with a TGI of more than 100 µM.

`Nc1nc2cc3nc(N)c(N)nc3cc2nc1N` had a TGI of more than 100 µM.

As to `CCOC(=O)CNC(=O)C(CSCc1ccc(Br)cc1)NC(=O)CCC(N)C(=O)OCC` (stereo not drawn), the TGI was more than 50 µM.

The molecule `COC(=O)C1(C(=O)OC)CC2=C(S(=O)(=O)c3ccccc3)C[C@H](S(=O)(=O)c3ccccc3)[C@H]2C1` displayed a TGI of more than 100 µM.

A further assay relates to UACC-257 melanoma. Kind of assay: growth of human tumour cells (NCI), 48 h.
`COc1cc2c(cc1OC)C1=Cc3cc(OC)c(OC)cc3C(C)N1C=C2` (stereo not drawn) had a TGI of more than 100 µM.

`Nc1nc2cc3nc(N)c(N)nc3cc2nc1N` displayed a TGI of more than 100 µM.
